# Source: patent US4394382A, “Dihydrobenzopyran compounds and pharmaceutical composition comprising said compounds” (Kowa Company, Ltd., priority 1980, dated 1983)
# Structures can show the parent of a compound that is named as a salt.
# Columns and labels:
# [1] = urine and electrolyte excretion, oral water load method; format: in vivo; settings: rat, over 5 hours; for Amount of urine: average ± standard deviation
# Description: Using rats, five per group, the amount of urine and the amount of electrolytes (sodium, potassium) excreted were measured over 5 hours after oral administration of each of the drugs by an oral water load method. Each of the test drugs was suspended in a 0.5% carboxymethyl cellulose solution and orally administered. Each of the numerical values given in the table is an average value ± standard deviation.
# [2] = target: T1, isoproterenol, atrium dextrum and atrium sinistrum (Cavia porcellus, UniProt H0W3H1); assay: isolated atrium cordis samples, antagonistic action on isoproterenol (Magnus method); settings: guinea pig atrium, vs isoproterenol; reciprocal logarithm of molar concentration
# T1 construct: Using the atrium dextrum and atrium sinistrum of a guinea pig; from tissue; host or cells: guinea pig right and left atria
# Description: (§1) Each of the test drugs was used in a concentration of 10^-9 to 4×10^-4 mole/1000 ml (M).
# (1) Isolated atrium cordis samples
# Using the atrium dextrum and atrium sinistrum of a guinea pig, the contractile force and rhythem were recorded, and the antagonistic action of the test drugs on isoproterenol was examined.
# [3] = test system: potassium contracture, left circumflex branch (coronary artery); assay: isolated coronary artery, action on potassium contracture (Magnus method); settings: dog coronary artery, 50% inhibition of maximum reaction, reciprocal logarithm of molar concentration
# Description: Each of the test drugs was used in a concentration of 10^-9 to 4×10^-4 mole/1000 ml (M). (3) Isolated coronary artery Using the left circumflex branch of a dog, the action of the test drugs on potassium contracture was examined.
# [4] = test system: potassium contracture, mesenteric artery; assay: isolated mesenteric artery, antagonistic action on potassium contracture (Magnus method); settings: dog mesenteric artery, 50% inhibition of maximum reaction, reciprocal logarithm of molar concentration
# Description: (§2) The activities of the compounds Ia and Ib on various isolated smooth muscles were examined by the Magnus method. Each of the test drugs was used in a concentration of 10^-9 to 4×10^-4 mole/1000 ml (M).
# (§3) (6) Isolated mesenteric artery
# (§4) Using an isolated mesenteric artery of a dog, the antagonistic action of the test drugs on (a) potassium contracture and (b) norepinephirine was examined.
# [5] = test system: norepinephirine, mesenteric artery; assay: isolated mesenteric artery, antagonistic action on norepinephrine (Magnus method); settings: dog mesenteric artery, vs norepinephrine; reciprocal logarithm of molar concentration
# Description: as §2, §3, §4
# [6] = test system: potassium contracture, portal vein; assay: isolated portal vein, action on potassium contracture (Magnus method); settings: dog portal vein, 50% inhibition of maximum reaction, reciprocal logarithm of molar concentration
# Description: as §2
# Using an isolated portal vein of a dog, the action of the test drugs on potassium contracture was examined.
# isoproterenol, bronchus = target: T2, isoproterenol, bronchus (Cavia porcellus, UniProt Q8K4Z4); assay: isolated bronchus sample, antagonistic action on isoproterenol (Magnus method); settings: guinea pig bronchus, vs isoproterenol, reciprocal logarithm of molar concentration
# T2 construct: Using the bronchus of a guinea pig; from tissue; host or cells: guinea pig bronchus
# Description: as §1
# (2) Isolated bronchus sample
# Using the bronchus of a guinea pig, the antagonistic action of the test drugs on isoproterenol was examined.
# [7] = test system: Femoral blood flow (femoral artery); assay: femoral blood flow in anesthetized dogs; format: in vivo, dog; settings: 1 to 300 μg/kg, *: an increase of about 10% as low doses, and a decrease of about 20% at high doses
# Description: Adult dogs were anesthetized with 30 mg/kg of pentobarbital administered intravenously and ventilated artificially. The effect of the compounds Ia and Ib on hemodynamic parameters was investigated. Drugs were used dissolved in 0.1 N hydrochloric acid and administered over the 1 to 300 μg/kg dose range.
# Measured with an electromagnetic flowmeter probe placed on the femoral artery.
# [8] = test system: potassium contracture, saphenous vein; assay: isolated saphenous vein, action on potassium contracture (Magnus method); settings: dog saphenous vein, 50% inhibition of maximum reaction, reciprocal logarithm of molar concentration
# Description: as §2
# (5) Isolated saphenous vein
# Using an isolated saphenous vein of a dog, the action of the test drugs on potassium contracture was examined.
# [9] = test system: various isolated smooth muscles; assay: activities on various isolated smooth muscles, overall (Magnus method)
# Description: as §2
# [10] = 30 mg/kg, controls 22.5 ± 1.4 and (second set) 19.4 ± 4.0
# [11] = 30 mg/kg, controls 0.18 ± 0.04 and (second set) 0.21 ± 0.08
# [12] = 30 mg/kg, controls 0.53 ± 0.15 and (second set) 0.55 ± 0.14
# [13] = 30 mg/kg, controls 3.08 ± 0.27 and (second set) 2.76 ± 0.83
# T1 sequence (H0W3H1 1-470): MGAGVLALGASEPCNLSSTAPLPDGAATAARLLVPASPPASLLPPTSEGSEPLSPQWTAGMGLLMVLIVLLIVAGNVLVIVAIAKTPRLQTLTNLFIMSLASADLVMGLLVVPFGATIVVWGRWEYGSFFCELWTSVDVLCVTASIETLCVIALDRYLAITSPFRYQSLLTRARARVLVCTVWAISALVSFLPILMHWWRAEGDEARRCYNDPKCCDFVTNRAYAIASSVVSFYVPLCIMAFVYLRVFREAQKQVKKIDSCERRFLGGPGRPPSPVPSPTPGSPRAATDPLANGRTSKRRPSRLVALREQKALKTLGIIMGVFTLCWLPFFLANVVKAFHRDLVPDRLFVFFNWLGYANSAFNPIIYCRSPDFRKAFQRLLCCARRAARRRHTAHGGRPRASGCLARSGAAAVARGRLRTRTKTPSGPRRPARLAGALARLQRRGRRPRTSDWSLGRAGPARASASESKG
# T2 sequence (Q8K4Z4 whole entry): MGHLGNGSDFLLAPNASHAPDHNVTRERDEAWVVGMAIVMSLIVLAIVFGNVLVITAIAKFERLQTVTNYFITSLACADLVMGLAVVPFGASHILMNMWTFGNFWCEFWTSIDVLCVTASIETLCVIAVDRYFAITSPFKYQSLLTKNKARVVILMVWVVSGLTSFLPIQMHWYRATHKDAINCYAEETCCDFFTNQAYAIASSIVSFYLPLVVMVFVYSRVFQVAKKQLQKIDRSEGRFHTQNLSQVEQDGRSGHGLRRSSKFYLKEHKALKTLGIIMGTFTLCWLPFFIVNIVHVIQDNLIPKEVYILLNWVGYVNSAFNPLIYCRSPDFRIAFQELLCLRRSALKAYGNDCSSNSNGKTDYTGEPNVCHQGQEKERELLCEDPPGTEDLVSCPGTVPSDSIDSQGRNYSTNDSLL
(1) pA2 [2],SMILES,"Amount of urine [1, 10] [mL/kg]","K/Na [1, 11]","K excreted [1, 12] [mEq/kg]","Na excreted [1, 13] [mEq/kg]",(3) pD'2 [3],(6) (a) pD'2 [4],(6) (b) pA2 [5],(4) pD'2 [6],(8) Femoral blood flow* [7],(5) pD'2 [8],other results
,"NS(=O)(=O)c1cc2c(cc1Cl)NC(C(Cl)Cl)NS2(=O)=O (centres unmarked) [Comparative drug II, trichlormethiazide, reference compound]",34.8 ± 1.7,0.21 ± 0.04,1.12 ± 0.18,5.36 ± 0.42,,,,,,,
,"CC(C)NCC(O)COc1cccc2ccccc12 (centres unmarked) [Comparative drug I, propranolol hydrochloride, reference compound]",27.8 ± 3.7,0.21 ± 0.04,0.70 ± 0.11,3.42 ± 0.28,,,,,,,
9.1,"CC(C)NCC(O)COc1cccc2c1OCC(O[N+](=O)[O-])C2 (centres unmarked) [Compound Ia, 3,4-dihydro-8-[(2-hydroxy-3-isopropylamino)propoxy]-3-nitrato-2H-benzopyran]",31.1 ± 3.2,0.20 ± 0.05,0.91 ± 0.23,4.18 ± 0.56,6.2-6.3,5.2-5.3,7.0-7.1,6.3-6.4,+~-,5.8-6.0,"Amount of urine ([1]; 10 mg/kg, control 22.5 ± 1.4): 24.2 ± 2.2 mL/kg; K excreted ([1]; 10 mg/kg, control 0.53 ± 0.15): 0.61 ± 0.20 mEq/kg; Na excreted ([1]; 10 mg/kg, control 3.08 ± 0.27): 3.25 ± 0.18 mEq/kg; Amount of urine ([1]; 100 mg/kg, control 19.4 ± 4.0): 34.0 ± 3.7 mL/kg; K/Na ([1]; 100 mg/kg, control 0.21 ± 0.08): 0.30 ± 0.10; K excreted ([1]; 100 mg/kg, control 0.55 ± 0.14): 0.14 ± 0.45 mEq/kg; Na excreted ([1]; 100 mg/kg, control 2.76 ± 0.83): 3.69 ± 0.33 mEq/kg; K/Na ([1]; control 0.18 ± 0.04): 0.19 ± 0.07; (2) pA2 (isoproterenol, bronchus): 9.1-9.2; β- and α-blocking activities [9]: strong β- and α-blocking activities"
7.83,"CC(C)NCC(O)COc1cccc2c1OCC(CO[N+](=O)[O-])C2 (centres unmarked) [Compound Ib, 3,4-dihydro-8-[(2-hydroxy-3-isopropylamino)propoxy]-3-nitratomethyl-2H-benzopyran]",32.6 ± 4.5,0.21 ± 0.08,0.83 ± 0.36,3.87 ± 0.64,5.7,5.6,6.4,6.2,+~-,6.2,"Kb (isoproterenol, bronchus; read-out: (2) pA2 (converted)): 5.13 nM"
